Test results: paper PMC7155171, “Probing the Open Global Health Chemical Diversity Library for Multistage-Active Starting Points for Next-Generation Antimalarials” (ACS Infectious Diseases, 2020)
Read-outs that look alike come from different tables or passages of the source.

Key:
[1] = test system: P. falciparum Dd2 (PfLuc) line expressing firefly luciferase, asexual blood stage; assay: microbe, parasite or virus in culture; type: cell-based, Plasmodium falciparum; conditions: Plasmodium falciparum
P. falciparum Dd2 = assay: SYBR green I asexual blood stage proliferation assay (96 h); type: cell-based, Plasmodium falciparum; conditions: Plasmodium falciparum, DD2, Sybr Green I, 11-pt dose response, 96hr; for IC50: read-out: CDD P. falciparum Sybr Green I ABS 11-pt Reconfirmation Dose Response (96hr): IC50; for Emax: read-out: CDD P. falciparum Sybr Green I ABS 11-pt Reconfirmation Dose Response (96hr): Maximum inhibition (%)
[2] = test system: P. berghei liver stage (PbLuc); assay: P. berghei luciferase liver stage (PbLuc) assay in HepG2-A16-CD81 hepatocytes; type: cell-based, Plasmodium berghei; conditions: Plasmodium berghei; for Emax: 12pt dose response, maximum inhibition
[3] = target: recombinant firefly luciferase (Photinus pyralis, UniProt P08659); assay: biochemical; conditions: for Emax: maximum inhibition, read-out: rLuc inhibition dose response: Maximum inhibition (%)
[4] = test system: HepG2-A16-CD81 hepatocytes; assay: HepG2 cytotoxicity screening (CellTiter-Glo); conditions: for IC50: HepG2-A16-CD81, read-out: HepG2 tox IC50; for HepG2 cytotoxicity 12pt dose response: Maximum inhibition (%): 12pt dose response
[5] = HepG2 cytotoxicity screening (CellTiter-Glo); conditions: human, uninfected HepG2-A16-CD81 (EGFP) hepatocytes
[6] = DD2, read-out: CDD P. falciparum Luciferase ABS 11-pt Reconfirmation Dose Response (48hr): IC50 (μM), 11-pt dose response, 48hr
[7] = DD2, 8-pt dose response, 96hr, read-out: CDD P. falciparum Luciferase ABS 8-pt Reconfirmation Dose Response (96hr): IC50
[8] = DD2, 8-pt dose response, 96hr, read-out: CDD P. falciparum Luciferase ABS 8-pt Reconfirmation Dose Response (96hr): Maximum inhibition (%)
[9] = DD2, 11-pt dose response, 48hr, read-out: CDD P. falciparum Luciferase ABS 11-pt Reconfirmation Dose Response (48hr): Maximum inhibition (%)
[10] = DD2, 11-pt dose response, 96hr, read-out: CDD P. falciparum Luciferase ABS 11-pt Reconfirmation Dose Response (96hr): IC50
[11] = DD2, 11-pt dose response, 96hr, read-out: CDD P. falciparum Luciferase ABS 11-pt Reconfirmation Dose Response (96hr): Maximum inhibition (%)
[12] = HepG2-A16-CD81, 48 h, 48 h liver stage, HepG2-A16-CD81, read-out: Pbluc (EEF) IC50
[13] = HepG2-A16-CD81, 12pt dose response, read-out: PbLuc 12pt dose response: IC50
[14] = dose response, read-out: rLuc inhibition dose response: IC50

recombinant firefly luciferase, sequence (P08659 whole entry): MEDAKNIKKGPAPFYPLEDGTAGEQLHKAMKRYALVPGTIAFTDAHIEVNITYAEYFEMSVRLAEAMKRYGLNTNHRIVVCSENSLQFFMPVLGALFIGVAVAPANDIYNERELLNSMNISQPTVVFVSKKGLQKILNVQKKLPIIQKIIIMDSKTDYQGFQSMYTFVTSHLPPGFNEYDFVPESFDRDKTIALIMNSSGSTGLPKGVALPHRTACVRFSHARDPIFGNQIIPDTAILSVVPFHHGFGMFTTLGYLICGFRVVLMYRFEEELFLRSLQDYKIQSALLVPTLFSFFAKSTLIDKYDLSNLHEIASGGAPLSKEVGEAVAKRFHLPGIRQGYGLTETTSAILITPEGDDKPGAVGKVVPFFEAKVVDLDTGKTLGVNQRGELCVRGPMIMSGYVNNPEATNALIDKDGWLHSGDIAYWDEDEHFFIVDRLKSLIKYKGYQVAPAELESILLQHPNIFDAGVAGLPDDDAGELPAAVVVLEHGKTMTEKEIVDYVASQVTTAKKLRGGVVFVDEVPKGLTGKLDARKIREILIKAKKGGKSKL

Row | SMILES | IC50 [2, 12] | IC50 ([3]; read-out: rLuc IC50) | IC50 [4] | IC50 [2, 13] | Emax ([2]; HepG2-A16-CD81, 48 h) | Emax ([3]; dose response) | IC50 [3, 14] | IC50 [5] | HepG2 cytotoxicity 12pt dose response: Maximum inhibition (%) [4] | other results
1 | CCOc1ccc(CN2CCCC(c3cc4ncccc4[nH]3)C2)cc1 (stereo not drawn) [DDD01057418] | 5.76 µM | > 25 µM | > 25 µM |  |  |  |  |  |  | IC50 [1, 6]: 1.07 µM; IC50 [1, 7]: 0.96 µM; Emax [1, 8]: 95.5%; Emax [1, 9]: 96.8%; IC50 [1, 10]: 0.872 µM; Emax [1, 11]: 100%; IC50 (P. falciparum Dd2): 0.934 µM; Emax (P. falciparum Dd2): 95.7%
2 | COc1cc(C)c(CN2CCc3nc4ccsc4c(=O)n3CC2)cc1C [DDD01059934] | 8.88 µM | > 25 µM | > 25 µM |  |  |  |  |  |  | 
3 | O=c1c2sccc2nc2n1CCN(Cc1ccccc1C(F)(F)F)CC2 [DDD01059968] | 6.77 µM | > 25 µM | > 25 µM |  |  |  |  |  |  | 
4 | Clc1ccc(-c2ccc(C3CNCCO3)nc2)cc1 (stereo not drawn) [DDD01060778] | < 0.000141 µM | 0.06 µM | > 25 µM |  |  |  |  |  |  | IC50 [1, 6]: 1.38 µM; IC50 [1, 7]: 0.46 µM; Emax [1, 8]: 93%; Emax [1, 9]: 97.5%; IC50 [1, 10]: 1.36 µM; Emax [1, 11]: 99.3%; IC50 (P. falciparum Dd2): > 12.5 µM; Emax (P. falciparum Dd2): 56.1%
5 | COc1ccc(-c2ccc(C3CNCCO3)nc2)cc1 (stereo not drawn) [DDD01061023] | < 0.000141 µM | 0.03 µM | > 50 µM |  |  |  |  |  |  | 
6 | CCc1nc(CN2CCCN(c3ncnc4ccccc34)CC2)no1 [DDD01080636] | 0.691 µM | > 50 µM | 1.85 µM |  |  |  |  |  |  | 
7 | COc1ccc2cc(C3CN(C(=O)CCNC(C)=O)CCO3)ccc2c1 (stereo not drawn) [DDD01248593] | 0.333 µM | 9.9 µM | > 25 µM |  |  |  |  |  |  | 
8 | CNC(=O)CCC(=O)N1CCOC(c2ccc3cc(OC)ccc3c2)C1 (stereo not drawn) [DDD01251007] | 0.000954 µM | 23.5 µM | > 25 µM |  |  |  |  |  |  | 
9 | COc1ccc2cc(C3CN(C(=O)N(C)C)CCO3)ccc2c1 (stereo not drawn) [DDD01257372] | < 0.000141 µM | 3.45 µM | > 25 µM |  |  |  |  |  |  | 
10 | COC1CCN(c2ccc(NC(=O)C3CC3)cc2C(F)(F)F)CC1 [UCSD-0582177] |  |  |  | 14.7 µM | 87.5% | 16.4% | > 25 µM | > 25 µM | 23% | HepG2 Cytotoxicity primary screen (2uM): % Inhibition [4]: 12.40%
11 | CCc1cccc(N2CCC(NC(=O)c3ccco3)CC2)c1 [UCSD-0587427] |  |  |  | 11.1 µM | 87.3% | 11.1% | > 25 µM | > 25 µM | 3.68% | HepG2 Cytotoxicity primary screen (2uM): % Inhibition [4]: 4.14%
12 | Cn1cnc2c1CCN(Cc1csc(-c3ccccc3F)n1)C2 [UCSD-0598805] |  |  |  | < 0.000141 µM | 84.3% | 81.2% | 15 µM | > 25 µM | 6.01% | inhibition at 2 µM [5]: 0.19%
13 | COc1cccc(CN2CCN(c3ccc4nncn4n3)C(C)C2)c1 (stereo not drawn) [UCSD-0601459] |  |  |  | 12.6 µM | 92.1% | 0.876% | > 25 µM | > 25 µM | 49.9% | HepG2 Cytotoxicity primary screen (2uM): % Inhibition [4]: -7.20%
14 | COC(=O)c1sc(NCc2ccc(N3CCC(O)CC3)c(F)c2)nc1Cl [UCSD-0616240] |  |  |  | 12.5 µM | 87.4% | 26.9% | > 25 µM | 17.7 µM | 58.9% | HepG2 Cytotoxicity primary screen (2uM): % Inhibition [4]: 5.85%
15 | CCc1nc(CN2CCCN(c3ncnc4ccccc34)CC2)no1 [UCSD-0620461] |  |  |  | 0.691 µM | 96.1% | 3.79% | > 50 µM | > 1.85 µM | 60.2% | inhibition at 2 µM [5]: 6.37%
16 | COc1cccc(CNc2cc(C)nc(-c3ccncc3)n2)c1OC [UCSD-0704521] |  |  |  | 4.43 µM | 104% | 11.7% | > 25 µM | 9.86 µM | 80.5% | HepG2 Cytotoxicity primary screen (2uM): % Inhibition [4]: -4.44%
17 | CC(C)Cc1ccc(S(=O)(=O)Nc2ccc(=O)n(C)c2)cc1 [UCSD-0710590] |  |  |  | 0.0472 µM | 91.6% | 7.28% | > 25 µM | > 0.31 µM | 60.9% | inhibition at 2 µM [5]: 3.02%
18 | Cn1cc(NS(=O)(=O)c2ccc(OC(F)(F)F)cc2)ccc1=O [UCSD-0710715] |  |  |  | 13.1 µM | 69.6% | 16.1% | > 25 µM | > 25 µM |  | HepG2 Cytotoxicity primary screen (2uM): % Inhibition [4]: -4.65%
19 | COc1c(CNCc2ccc(C(=O)N(C)C(C)C)cc2)c(C)nn1C [UCSD-0723791] |  |  |  | 2.49 µM | 86.3% | -4.69% | > 25 µM | 16.6 µM | 53.2% | inhibition at 2 µM [5]: 0.82%
20 | O=C(Nc1ccc(Cl)cn1)c1nn(C2CCS(=O)(=O)C2)c2c1CCCC2 (stereo not drawn) [UCSD-0749819] |  |  |  | > 25 µM | 60% | 2.39% | > 25 µM | > 25 µM | -0.0195% | inhibition at 2 µM [5]: -5.58%
21 | Cc1cnc(NC(=O)c2csc(NC3CCCC3)n2)s1 [UCSD-0752486] |  |  |  | 8.33 µM | 93.6% | 65.8% | 24.8 µM | > 25 µM | 48.7% | 
22 | Cc1[nH]/c(=N\C(=O)c2csc(NC3CCCC3)n2)sc1C [UCSD-0752597] |  |  |  | 0.832 µM | 121% | 92.3% | 44.4 µM | 11 µM | 87.9% | inhibition at 2 µM [5]: 8%
